Reference: patent publication US6696076B2, “Immune response modifier compounds for treatment of TH2 mediated and related diseases” (3M Innovative Properties Company, priority 1996, dated 2004)

Tests used:
[1] = tested on: IL-5 production in spleen cells from OVA-sensitized CFW mice; assay: Inhibition of mouse spleen cell production of IL-5 (OVA-stimulated cultures, ELISA); assay type: cell-based; conditions: for IL-5 Concentration: 96 hr
[2] = tested on: antigen induced IL-5 production; assay: Antigen induced IL-5 production in vivo (serum, OVA-challenged sensitized mice); set-up: species or system mouse; conditions: for −24 hr IL-5: 24 hrs before OVA challenge; for −24 hr IL-5 / 0 hr IL-5: serum 7 hrs after OVA; for 0 hr IL-5: same time as OVA challenge
Procedure: CFW male mice were sensitized with OVA as described above. 14 days after the last sensitization animals were challenged with 100 μg OVA sc. […] Serum was collected 7 hrs after OVA and analyzed for IL-5 and IFN-γ concentrations. Results are expressed as the mean cytokine concentration ±SEM.

[3] = tested on: antigen-induced eosinophilia in the lung; assay: Antigen-induced lung eosinophilia after aerosol OVA challenge (EPO in lung); assay type: in vivo, mouse; conditions: 1 mg/kg, 15 minutes prior to antigen challenge, mice
Procedure: Concentrations of IL-4 were reduced in the BAL of these mice by 43% when compared to animals receiving antigen alone. […] Fourteen days after boosting animals were dosed by nebulization for 30 minutes using a 1% OVA solution. This was repeated on days 17 and 20. Twenty-four hours after the final nebulized dose animals were sacrificed and bronchoalveolar lavage (BAL) was performed using 1.0 ml of PBS containing 1% fetal bovine serum. BAL was stored at −70° C. before analyzed. Lungs were then removed and placed in 0.5% cetrimide, 0.05 M KH2PO4 for homogenization of 4×30 seconds with 30 second cooling intervals between on ice. Centrifugation was then done at 1300 rpm (400×g) for 30 minutes at 4C. Pellet was collected and resuspended in 4 ml 0.5% cetrimide, 0.05 M KH2PO4 buffer. Samples were then frozen until sonication and the EPO assessment. This was followed by sonication for 3×15 seconds with 30 second intervals on ice. […] To start the reaction, 1 ul of 30% hydrogen peroxide was added to the cuvette. The optical density reading was measured spectrophotometrically over a 4 minute time interval at 490 nm in a Beckman Du-64 spectrophotometer.

[4] = tested on: IL-5; assay: Antigen-induced IL-5 in BAL after aerosol OVA challenge (ELISA); assay type: in vivo, mouse; conditions: 1 mg/kg, 15 minutes prior to antigen challenge, mice
Procedure: (§1) Concentrations of IL-4 were reduced in the BAL of these mice by 43% when compared to animals receiving antigen alone. […] Fourteen days after boosting animals were dosed by nebulization for 30 minutes using a 1% OVA solution. This was repeated on days 17 and 20. Twenty-four hours after the final nebulized dose animals were sacrificed and bronchoalveolar lavage (BAL) was performed using 1.0 ml of PBS containing 1% fetal bovine serum. BAL was stored at −70° C. before analyzed. Lungs were then removed and placed in 0.5% cetrimide, 0.05 M KH2PO4 for homogenization of 4×30 seconds with 30 second cooling intervals between on ice. Centrifugation was then done at 1300 rpm (400×g) for 30 minutes at 4C. Pellet was collected and resuspended in 4 ml 0.5% cetrimide, 0.05 M KH2PO4 buffer. Samples were then frozen until sonication and the EPO assessment. This was followed by sonication for 3×15 seconds with 30 second intervals on ice. BAL were analyzed by ELISA (Endogen) for IL-5 and IL-4 concentrations with data being presented as the average from 11 animals ±SEM. […] IL-5 concentration is in pg/ml.

[5] = tested on: IL-4; assay: Antigen-induced IL-4 in BAL after aerosol OVA challenge (ELISA); assay type: in vivo, mouse; conditions: 1 mg/kg, 15 minutes prior to antigen challenge, mice
Procedure: as §1

[6] = tested on: sephadex-induced eosinophilia in the lung; assay: Sephadex-induced lung eosinophilia in rats (EPO assay); assay type: in vivo; conditions: rat; for maximum inhibition of sephadex-induced eosinophilia: maximum over doses and routes tested; for dose capable of inhibiting sephadex-induced eosinophilia in the lung: 60 minutes prior to challenge
[7] = tested on: ovalbumin-induced eosinophilia in the lung; assay: Ovalbumin-induced lung eosinophilia in the guinea pig (EPO assay); assay type: in vivo; conditions: for maximum inhibition of ovalbumin-induced eosinophilia: maximum over doses and routes tested
[8] = oral administration, 0.001 mg/kg
[9] = oral administration, 0.01 mg/kg
[10] = intratracheal instillation, 0.03 mg/kg
[11] = intratracheal instillation, 0.1 mg/kg
[12] = intratracheal instillation, 0.3 mg/kg
[13] = intratracheal instillation, 0.7 mg/kg
[14] = oral administration, 30.0 mg/kg
[15] = aerosol inhalation, 0.003 mg/kg
[16] = intraperitoneal administration, 0.003 mg/kg
[17] = intraperitoneal administration, 0.01 mg/kg
[18] = intraperitoneal administration, 0.03 mg/kg
[19] = intraperitoneal administration, 3.0 mg/kg

## CCOCc1nc2c(N)nc3ccccc3c2n1CC(C)(C)O [Cmpd 2, 4-amino-2-ethoxymethyl-α,α-dimethyl-1H-imidazo[4,5-c]quinoline-1-ethanol]
[1]; OVA 100 μg/ml + IRM Compound 0.01 μg/ml, mean ±SEM
  IL-5 Concentration: 125 ± 46 pg/mL
[1]; OVA 100 μg/ml + IRM Compound 0.1 μg/ml, mean ±SEM
  IL-5 Concentration: 25 ± 8 pg/mL
[1]; OVA 100 μg/ml + IRM Compound 1 μg/ml, mean ±SEM
  IL-5 Concentration: 22 ± 3 pg/mL
[1]; OVA 100 μg/ml + IRM Compound 10 μg/ml, mean of triplicate cultures ±SEM
  IL-5 Concentration: 12 ± 2 pg/mL
[1]; concentrations as low as 0.01 μg/ml
  inhibition of IL-5 production: greater than 60%
[1]; higher concentrations (above 0.01 μg/ml)
  inhibition of IL-5 production: 100%
[2]; doses as low as 0.01 mg/kg po
  inhibition of IL-5 production: at least 65%
[2]; free-base po 0.01 mg/kg
  −24 hr IL-5: 78 pg/mL
  0 hr IL-5: 96 pg/mL
[2]; free-base po 0.1 mg/kg
  −24 hr IL-5: 49 pg/mL
  0 hr IL-5: 62 pg/mL
[2]; free-base po 1.0 mg/kg
  −24 hr IL-5: 38 pg/mL
  0 hr IL-5: 40 pg/mL
[2]; free-base po 10.0 mg/kg
  −24 hr IL-5: 8 pg/mL
  0 hr IL-5: 29 pg/mL
[3]
  EPO Concentration in Lung: 352 ± 30 ABS
  inhibition of antigen-induced eosinophilia in the lung (value in parentheses): 78%
[4]
  IL-5 Concentration in BAL: 13 ± 2 pg/mL
  reduction of BAL IL-5 concentration (value in parentheses): 78%
[5]
  IL-4 Concentration in BAL: 53 ± 8 pg/mL
  reduction of BAL IL-4 concentration (value in parentheses): 43%
[5]; listed as IRM Compound
  reduction of BAL IL-4 concentration (value in parentheses): 42%
[6]
  maximum inhibition of sephadex-induced eosinophilia: 87%
[6]; [8]
  % Inhibition: 0%
  EPO Concentration in the Lung (χ ± SE): 0.6775 ± 0.140
[6]; [9]
  % Inhibition: 32%
  EPO Concentration in the Lung (χ ± SE): 0.4908 ± 0.070
[6]; oral administration, 0.1 mg/kg
  % Inhibition: 84%
  EPO Concentration in the Lung (χ ± SE): 0.2000 ± 0.060
[6]; oral administration, 1.0 mg/kg
  % Inhibition: 87%
  EPO Concentration in the Lung (χ ± SE): 0.1824 ± 0.060
[6]; oral administration
  dose capable of inhibiting sephadex-induced eosinophilia in the lung: ≥ 0.01 mg/kg
[7]
  maximum inhibition of ovalbumin-induced eosinophilia: 96%
[7]; [8]
  % Inhibition: 19%
  EPO Concentration in the Lung (χ ± SE): 0.1862 ± 0.030
[7]; [9]
  % Inhibition: 49%
  EPO Concentration in the Lung (χ ± SE): 0.1181 ± 0.020
[7]; oral administration, 0.1 mg/kg
  % Inhibition: 95%
  EPO Concentration in the Lung (χ ± SE): 0.0118 ± 0.005
[7]; oral administration, 1.0 mg/kg
  % Inhibition: 96%
  EPO Concentration in the Lung (χ ± SE): 0.0084 ± 0.005
[7]; oral administration, 60 minutes prior to challenge
  dose capable of inhibiting ovalbumin-induced eosinophilia in the lung: 0.01 mg/kg

## Cc1nc2c(N)nc3ccccc3c2n1CC(C)(C)O [Cmpd 1, 4-amino-α,α,-2-trimethyl-1H-imidazo[4,5-c]quinoline-1-ethanol]
[6]; [10]
  % Inhibition: 0%
  EPO Concentration in the Lung (χ ± SE): 0.7107 ± 0.129
[6]; [11]
  % Inhibition: 9%
  EPO Concentration in the Lung (χ ± SE): 0.5030 ± 0.089
[6]; [12]
  % Inhibition: 44%
  EPO Concentration in the Lung (χ ± SE): 0.3440 ± 0.201
[6]; [13]
  % Inhibition: 77%
  EPO Concentration in the Lung (χ ± SE): 0.1967 ± 0.080
[6]; intratracheal instillation
  dose capable of inhibiting sephadex-induced eosinophilia in the lung: ≥ 0.7 mg/kg
[6]
  maximum inhibition of sephadex-induced eosinophilia: 95%
[6]; oral administration, 0.1 mg/kg
  % Inhibition: 0%
  EPO Concentration in the Lung (χ ± SE): 0.4240 ± 0.138
[6]; oral administration, 0.7 mg/kg
  % Inhibition: 64%
  EPO Concentration in the Lung (χ ± SE): 0.1497 ± 0.030
[6]; oral administration, 1.0 mg/kg
  % Inhibition: 87%
  EPO Concentration in the Lung (χ ± SE): 0.0780 ± 0.039
[6]; oral administration, 5.0 mg/kg
  % Inhibition: 87%
  EPO Concentration in the Lung (χ ± SE): 0.0790 ± 0.030
[6]; [14]
  % Inhibition: 95%
  EPO Concentration in the Lung (χ ± SE): 0.0550 ± 0.013
[6]; oral administration
  dose capable of inhibiting sephadex-induced eosinophilia in the lung: ≥ 0.7 mg/kg
[7]; [15]
  % Inhibition: 13%
  EPO Concentration in the Lung (χ ± SE): 0.2620 ± 0.116
[7]; aerosol inhalation, 0.01 mg/kg
  % Inhibition: 44%
  EPO Concentration in the Lung (χ ± SE): 0.1806 ± 0.035
[7]; aerosol inhalation, 15 minutes prior to challenge
  dose capable of inhibiting ovalbumin-induced eosinophilia in the lung: 0.01 mg/kg
[7]; [16]
  % Inhibition: 28%
  EPO Concentration in the Lung (χ ± SE): 0.2435 ± 0.0515
[7]; [17]
  % Inhibition: 54%
  EPO Concentration in the Lung (χ ± SE): 0.1690 ± 0.053
[7]; [18]
  % Inhibition: 54%
  EPO Concentration in the Lung (χ ± SE): 0.1693 ± 0.060
[7]; [19]
  % Inhibition: 92%
  EPO Concentration in the Lung (χ ± SE): 0.0580 ± 0.018
[7]; intraperitoneal administration, 15 minutes prior to challenge
  dose capable of inhibiting ovalbumin-induced eosinophilia in the lung: 0.01 mg/kg
[7]
  maximum inhibition of ovalbumin-induced eosinophilia: 92%
